Reference: patent publication US8519154B2, “Method for treatment of bronchial asthma” (Council of Scientific & Industrial Research, priority 2011, dated 2013)

How the values were obtained:
mice (Balb/c) = experiment: 28 d sub-acute oral toxicity (OECD TG 407); assay type: in vivo; details: for Protein: normal 6-9; for SGOT: normal 19@25° C.; for Glucose: normal 55-130; for Bilirubin: normal <1.1; for SGPT: normal <22 @25° C.; for CMI DTH (% increase in paw vol): SRBC sensitized; for Total Ig IgG / Total Ig IgM: serum, ELISA; for % viability BM / % viability LN / % viability Spleen: trypan blue
Description: (§1) The study was performed according to the guidelines laid in OECD TG 407. Young healthy adult mice (Balb/c) weighing between 28 to 35 g were employed and randomly assigned to the control and treatment groups and kept in their cages for at least five days prior to the start of the treatment to allow for acclimatisation to the laboratory conditions. 10 animals (five female and five male) were used at each dose level. Local standards of laboratory animal care were maintained. The temperature in the experimental animal room was maintained at 24° C.±3° C. and the relative humidity between 40 to 60% with 12 hours artificial light and 12 hours dark photoperiod. For feeding, conventional sterile pellet diets (Nay Chetan) with an unlimited supply of RO drinking water was given. A sample of the diet was retained until finalisation of the report. Animals were housed in small groups of 5 of the same sex.
(§2) Blunt ended canula was used for gavaging. During the period of administration of Compound I, the animals are observed closely (30 minutes cage side observation), each day for signs of toxicity till the day of sacrifice. Weights of animals and measurements of food consumption were made once in a week.
(§3) Experimental animals were sacrificed on day 29. Before sacrifice, blood was drawn from the retro-orbital sinus of mice with the help of heparinised capillary tubes and split in to two parts. Part taken in tubes containing EDTA was used for hematological studies with the help of Automatic Hematology Analyzer (Medonic). The other part was allowed to clot for 2 h and serum separated by centrifugation at 3000 rpm for 5 min, and subsequently used for clinical biochemistry and immunoglobuling profiling. Post sacrifice, the individual organs were dissected out, weighed and percentage relative organ weights determined. Spleen, lymphnode and bone marrow cell viability were judged by trypan blue dye exclusion test.
(§4) The blood left after the hematological studies were allowed to clot for 2 h and serum separated by centrifugation at 3000 rpm for 5 min and subsequently used for clinical biochemistry. Details of the clinical biochemistry are given below in table II.
(§5) Serum concentrations of total IgG and IgM were measured by ELISA and Cell mediated immunity was measured in terms of % increase in paw volume in mice sensitized with SRBC.
(§6) Histopathology was carried out on vital organs by fixing organs in 10% buffered formalin saline for 72 h followed by washing, dehydrating and embedding on paraffin wax. Paraffin blocks were sectioned (4-5μ tick), deparaffinised and stained with hematoxylin and eosin for viewing and photography under microscope (Nikion, Japan). Histopathology was performed in the control and high dose groups unless mentioned otherwise.

[1] = 28 d sub-acute oral toxicity (OECD TG 407); assay type: in vivo, mice; details: both sexes, Balb/c, mouse, in vivo; mice, 28 d oral
Description: as §1, §2, §3, §4, §5, §6

[2] = system: BALB/c mice sensitized and challenged with ovalbumin (OVA); experiment: Airway responsiveness to methacholine in mouse model of asthma; assay type: in vivo
Description: Present invention describes the efficacy of compound I in vivo mouse model of asthma. BALB/c mice were sensitized and challenged with ovalbumin (OVA) as shown in scheme 2 to develop asthmatic features such as airway hyperreactivity (AHR) to methacholine (MCh).
Mice were sensitized with 0.2 ml PBS containing 50 μg ovalbumin (OVA) (Sigma, USA) and 4 mg aluminum hydroxide in saline intraperitonially (i.p.) on days 0, 7 and 14 as shown in scheme 2. Sham group mice were sensitized with only alum dissolved in PBS. From day 21 to 30, mice were exposed to aerosol of OVA (3%) inhalation 25 minutes daily in a Plexiglas chamber (20×20×10 cm^3). The aerosol was generated by a nebulizer (OMRON CX, model) with an airflow rate of 9 L/minute. Sham group mice were challenged with PBS alone. […]
Airway responsiveness was measured by barometric plethysmography using whole-body plethysmography (WBP; Buxco, Troy, N.Y.) 12 hours after last saline or ovalbumin challenge. […] Enhanced pause (Penh) to methacholine as measured using barometric plethysmography is a valid indicator of bronchoconstriction in mice and can be used to measure AHR. […] Readings were taken and averaged for 5 minutes from the starting time of nebulisation. Airway responsiveness to MCh was evaluated by the concentration of MCh required to increase the Pen H to twice the baseline value (MCh PC200).

With `COc1cc(C=O)cc2c1[nH]c1ccccc12` [Compound I, 1-methoxy-3-formyl-9H carbazole] the HGB (mice (Balb/c); 42 mg/kg, 28 d oral) was 9.47 ± 1.7 g/dL, the PLT (mice (Balb/c); 42 mg/kg, 28 d oral) was 439 ± 76 × 10^3/mm^3 and the RBC (mice (Balb/c); 42 mg/kg, 28 d oral) was 7.29 ± 1.46 ×10^6/mm^3. The WBC (mice (Balb/c); 42 mg/kg, 28 d oral) was 6.7 ± 1.2 10^3/mm^3, the Protein (mice (Balb/c); 42 mg/kg, 28 d oral) was 7.93 ± 1.33 g/dL and the SGOT (mice (Balb/c); 42 mg/kg, 28 d oral) was 15.51 ± 3.6 U/L. For the same compound, the Glucose (mice (Balb/c); 42 mg/kg, 28 d oral) was 127 ± 17 mg/dL, the Bilirubin (mice (Balb/c); 42 mg/kg, 28 d oral) was 0.74 ± 0.08 mg/dL and the SGPT (mice (Balb/c); 42 mg/kg, 28 d oral) was 18.54 ± 2.1 U/L. For the same compound, the “CMI DTH (% increase in paw vol)” value (mice (Balb/c); 47 mg/kg, 28 d oral) was 17.23 ± 4.4 % increase in paw vol, the “Total Ig IgG” value (mice (Balb/c); 47 mg/kg, 28 d oral) was 3.1 ± 0.85 mg/mL and the “Total Ig IgM” value (mice (Balb/c); 47 mg/kg, 28 d oral) was 1.48 ± 0.12. For the same compound, the “% viability BM” value (mice (Balb/c); 47 mg/kg, 28 d oral) was 97.3 ± 3.5%, the “% viability LN” value (mice (Balb/c); 47 mg/kg, 28 d oral) was 95.9 ± 5.4% and the “% viability Spleen” value (mice (Balb/c); 47 mg/kg, 28 d oral) was 96.8 ± 4.8%. The “glucose vs normal range” value (mice (Balb/c); 93 mg/kg) was “marginally higher than the normal range”, the symptoms of toxicity (mice (Balb/c); 93 mg/kg body weight) was “no symptoms of toxicity” and the HGB (mice (Balb/c); 93 mg/kg, 28 d oral) was 12.8 ± 2.4 g/dL. The PLT (mice (Balb/c); 93 mg/kg, 28 d oral) was 426 ± 43 × 10^3/mm^3, the RBC (mice (Balb/c); 93 mg/kg, 28 d oral) was 8.52 ± 1.4 ×10^6/mm^3 and the WBC (mice (Balb/c); 93 mg/kg, 28 d oral) was 5.9 ± 1.4 10^3/mm^3. The “CMI DTH (% increase in paw vol)” value (mice (Balb/c); 93 mg/kg, 28 d oral) was 19.2 ± 6.3 % increase in paw vol, the Protein (mice (Balb/c); 93 mg/kg, 28 d oral) was 8.73 ± 2.8 g/dL and the SGOT (mice (Balb/c); 93 mg/kg, 28 d oral) was 12.9 ± 1.92 U/L. It also gave a Glucose (mice (Balb/c); 93 mg/kg, 28 d oral) of 133 ± 13 mg/dL, a Bilirubin (mice (Balb/c); 93 mg/kg, 28 d oral) of 0.17 ± 0.068 mg/dL and an SGPT (mice (Balb/c); 93 mg/kg, 28 d oral) of 10.2 ± 2.9 U/L. For the same compound, the “Total Ig IgG” value (mice (Balb/c); 93 mg/kg, 28 d oral) was 3.6 ± 1.26 mg/mL, the “Total Ig IgM” value (mice (Balb/c); 93 mg/kg, 28 d oral) was 1.12 ± 0.33 and the “% viability BM” value (mice (Balb/c); 93 mg/kg, 28 d oral) was 96.8 ± 4.6%. For the same compound, the “% viability LN” value (mice (Balb/c); 93 mg/kg, 28 d oral) was 96.5 ± 4.6%, the “% viability Spleen” value (mice (Balb/c); 93 mg/kg, 28 d oral) was 95.4 ± 5.3% and the “SGOT vs normal range” value (mice (Balb/c); 187 mg/kg) was “marginally higher than the normal range”. For the same compound, the “glucose level vs normal range” value (mice (Balb/c); 187 mg/kg) was “much higher than the normal range”, the kidney histopathology (mice (Balb/c); 187 mg/kg) was “sign of necrosis in the corticular region” and the signs of toxicity (mice (Balb/c); 187 mg/kg) was “Few signs of toxicity”. For the same compound, the HGB (mice (Balb/c); 187 mg/kg, 28 d oral) was 13.2 ± 1.8 g/dL, the PLT (mice (Balb/c); 187 mg/kg, 28 d oral) was 472 ± 65 × 10^3/mm^3 and the RBC (mice (Balb/c); 187 mg/kg, 28 d oral) was 8.6 ± 0.67 ×10^6/mm^3. For the same compound, the WBC (mice (Balb/c); 187 mg/kg, 28 d oral) was 5.9 ± 4.1 10^3/mm^3, the “CMI DTH (% increase in paw vol)” value (mice (Balb/c); 187 mg/kg, 28 d oral) was 17.4 ± 6.6 % increase in paw vol and the Protein (mice (Balb/c); 187 mg/kg, 28 d oral) was 7.27 ± 0.85 g/dL. It also gave an SGOT (mice (Balb/c); 187 mg/kg, 28 d oral) of 20.2 ± 0.85 U/L, a Glucose (mice (Balb/c); 187 mg/kg, 28 d oral) of 183 ± 20 mg/dL and a Bilirubin (mice (Balb/c); 187 mg/kg, 28 d oral) of 0.91 ± 0.057 mg/dL. For the same compound, the SGPT (mice (Balb/c); 187 mg/kg, 28 d oral) was 15.83 ± 2.32 U/L, the “Total Ig IgG” value (mice (Balb/c); 187 mg/kg, 28 d oral) was 2.9 ± 0.56 mg/mL and the “Total Ig IgM” value (mice (Balb/c); 187 mg/kg, 28 d oral) was 1.04 ± 0.34. The “% viability BM” value (mice (Balb/c); 187 mg/kg, 28 d oral) was 94.67 ± 4.9%, the “% viability LN” value (mice (Balb/c); 187 mg/kg, 28 d oral) was 97.4 ± 3.9% and the “% viability Spleen” value (mice (Balb/c); 187 mg/kg, 28 d oral) was 98.4 ± 4.4%. For the same compound, the “DTH response vs sham treated control” value (mice (Balb/c); SRBC sensitized mice) was “insignificant changes”, the “acute oral LOAEL” value (mice (Balb/c); mice, 28 d oral) was 187 mg/kg and the “viability of bone marrow cells, splenocyte and lymph node lymphocyte vs sham control” value (mice (Balb/c); trypan blue dye exclusion test) was “No significant changes”. The NOAEL at 28 days [1] was 93 mg/kg, the “MChPC200 (airway hyper-responsiveness)” value ([2]; 0.1, 1 and 10 mg/kg orally twice per day) was “significantly attenuated the decrease in MChPC200” and the “dose with maximum effect on MChPC200” value ([2]; orally twice per day) was 10 mg/kg.
